Source: patent US10618900B2, “5-aromatic alkynyl substituted benzamide compound and preparation method, pharmaceutical composition, and use thereof” (SHANGHAI INSTITUTE OF MATERIA MEDICA, CHINESE ACADEMY OF …, priority 2015, dated 2020)
Read-outs that look alike come from different tables or passages of the source.

Assays:
mice [1] = assay: Mouse tail suspension experiment; format: in vivo; details: 20 mg/kg dose, within 6 min, FIG. 1
Description: Experimental principle: Tail Suspension Test (TST) is a classic method which can quickly evaluate the efficacy of antidepressant drugs, excitement drugs, and sedative drugs. The principle is to use the status that the mouse give up struggle and enter the unique depression status after the tail was suspended and the attempt to escape was failed.
Experimental method: 20-24 g male mice were selected and the site at 2 cm part from the end of the tail was attached to a horizontal stick, so that the animal entered inverted state, and it's head was about 5 cm from the table, and boards were hung on both sides to separate the animal's sight. The immobility time of the administration group and the control group within 6 min were compared.

[2] = Determination of brain tissue content in rats; format: in vivo; details: rat
Description: Six healthy rats weighing 150-200 g were randomly divided into […] (n=3). The rats were given 10 mL/kg by gavage and intravenous injection, and the dose of gavage was 20 mg/kg, and the dose of intravenous administration was 10 mg/kg. The drug was formulated in DMSO/Tween 80/saline (5:5:90, v/v/v). The rats were fasted for 12 h before testing, and drinked water ad libitum. 2 h after administration, all rats ate together. […]
A physiological saline solution was added (1:10, weight:volume) and the mixture was sufficiently homogenized to form a homogenate. 100 uL homogenate was taken, and 300 uL dichloromethane:methanol (3:2) solution was added, mixed uniformly through vortex oscillation and centrifugated at 14000 rpm for 10 min. The clear liquor was taken. The sample was dried with nitrogen and stored in the 4° C. refrigerator.

Fmr1 knockout mice = assay: Audiogenic epilepsy induced animal model of Fmr1 knockout mice; format: in vivo; details: for Seizure level: level 0-4
Description: In this study, we used audiogenic epilepsy induced animal model of Fmr1 knockout mice, and evaluated the efficacy of compound ZD043 with epilepsy seizure latency, seizure level and epileptic mortality as evaluation indexes.
Species, strain: Fmr1 knockout mice, FVB.129P2-Pde6b^+ Tyr^c-ch Fmr1^tm1Cgr/J (strain number 004624)
Test reagent and preparation method: before the experiment, 2.0 mg ZD043 was weighed in 2 mL centrifuge tube, 10 uL DMSO was taken with a precise pipette to dissolve ZD043 powder, then 10 uL Tween80 was added, mixed and 980 uL of saline was added, well mixed to form a suspension liquid.
Methods: The mice were weighed on the day of the experiment. The mice were injected intraperitoneally into 19 to 22 days Fmr1 knockout mice respectively according to the experimental design group 30 minutes before the convulsive test. The mice to be tested were transferred to a sonic seizure test laboratory, placed in a transparent organic glass bucket, and a high-decibel siren loudspeaker was fixed on the top of organic glass bucket. Before delivering the stimulate sound, the mouse was allowed to explore freely for 1 minute, then turn on the loudspeaker, video recorded for the whole process by surveillance system, sound stimulated (≥120 dB) for 3 minutes, or stop after the animal was died, and the experiment was ended.
Test method: After the end of the experiment, the epilepsy seizure latency (2 grade appearance was regarded as seizures, and the longest latency period was recorded as 300 seconds if no epilepsy was observed) and seizure level (Level 0: no epileptic response; Level 1: rapid running and continuous jump; Level 2: paroxysmal epilepsy; Level 3: tonic epilepsy; Level 4: death) were analyzed according to video record.
Data processing: calculate the mean and standard error of the epilepsy seizure latency and seizure level as well as the percentage of epilepsy death of each group.

mGluR1 = mGluR1 (Homo sapiens (Human), UniProt Q13255); assay: mGluR5/1 selectivity test, HEK293/mGluR1 cell line, Fluo-8 calcium; format: cell-based
mGluR1, sequence (Q13255 19-1194): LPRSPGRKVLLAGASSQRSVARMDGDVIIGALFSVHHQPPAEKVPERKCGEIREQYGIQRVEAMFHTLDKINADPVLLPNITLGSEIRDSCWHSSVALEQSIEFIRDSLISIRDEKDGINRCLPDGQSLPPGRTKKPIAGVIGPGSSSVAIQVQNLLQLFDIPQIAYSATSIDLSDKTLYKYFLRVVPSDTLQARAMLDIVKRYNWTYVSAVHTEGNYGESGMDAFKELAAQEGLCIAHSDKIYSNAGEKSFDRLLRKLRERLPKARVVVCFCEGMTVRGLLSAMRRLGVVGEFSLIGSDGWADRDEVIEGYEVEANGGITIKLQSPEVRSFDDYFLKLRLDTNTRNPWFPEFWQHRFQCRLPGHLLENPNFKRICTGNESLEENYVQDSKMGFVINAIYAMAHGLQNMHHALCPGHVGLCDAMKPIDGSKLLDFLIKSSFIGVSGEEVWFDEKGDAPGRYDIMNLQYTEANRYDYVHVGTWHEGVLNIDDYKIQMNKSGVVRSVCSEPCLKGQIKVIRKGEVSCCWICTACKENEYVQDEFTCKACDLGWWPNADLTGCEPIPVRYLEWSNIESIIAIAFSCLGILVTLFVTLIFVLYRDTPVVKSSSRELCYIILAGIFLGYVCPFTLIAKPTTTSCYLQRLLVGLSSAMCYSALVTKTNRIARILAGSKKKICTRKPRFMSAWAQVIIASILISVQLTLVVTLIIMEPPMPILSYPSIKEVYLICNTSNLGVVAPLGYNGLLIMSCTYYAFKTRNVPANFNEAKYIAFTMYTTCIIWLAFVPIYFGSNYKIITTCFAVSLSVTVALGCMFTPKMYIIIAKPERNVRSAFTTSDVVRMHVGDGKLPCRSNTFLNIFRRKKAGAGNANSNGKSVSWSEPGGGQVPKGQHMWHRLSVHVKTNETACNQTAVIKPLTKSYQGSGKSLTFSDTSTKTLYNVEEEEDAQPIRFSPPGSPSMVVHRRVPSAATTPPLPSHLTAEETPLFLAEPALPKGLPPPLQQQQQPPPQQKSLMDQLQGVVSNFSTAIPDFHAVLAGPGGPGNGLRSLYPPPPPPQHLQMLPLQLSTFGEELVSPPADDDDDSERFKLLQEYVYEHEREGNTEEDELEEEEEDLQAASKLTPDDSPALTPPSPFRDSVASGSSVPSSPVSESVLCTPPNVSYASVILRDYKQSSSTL
Description: Experimental material: HEK293/mGluR5 cell line, HEK293/mGluR1 cell line, Fluo-8 calcium ion fluorescent dye, positive control JNJ16259685

[3] = Pharmacokinetic experiment in rats; format: in vivo; details: rat; for bioavailability: gavage 20 mg/kg vs intravenous 10 mg/kg, read-out: F (absolute bioavailability)
Description: Six healthy rats weighing 150-200 g were randomly divided into […] (n=3). The rats were given 10 mL/kg ZD043 by gavage and intravenous injection. The dose of gavage was 20 mg/kg, and the dose of intravenous administration was 10 mg/kg. The drug was formulated in DMSO/Tween 80/saline (5:5:90, v/v/v). The rats were fasted for 12 h before testing, and drinked water ad libitum. 2 h after administration, all rats ate together.
Gavage administration: 0, 0.25, 0.5, 1.0, 2.0, 4.0, 6.0, 8.0 and 24 h after administration;
Intravenous administration: 0, 5 min, 0.25, 0.5, 1.0, 2.0, 4.0, 6.0, 8.0 and 24 h after administration;
0.3 mL of blood was collected at the above time points from the rat eye vein venous plexus, placed in heparinized test tube and centrifugated at 11000 rpm for 5 min. Plasma was separated and the sample was frozed in −20° C. refrigerator.

mice [4] = assay: Head twitches test (5-HTP induced); format: in vivo; details: 20 mg/kg, intraperitoneal, in 6 min, FIG. 2
Description: Experimental principle: Model Head Thrust Test (HTT) is first raised by Corne et al. in 1963, head twitches syndrome caused by 5-HT receptor excitement may be mediated through the 5-HT2 receptor. The head twitches behavior induced by 5-HTP in mice is more sensitive to antidepressants with different action mechanisms, such as citalopram, fluvoxamine and other 5-HT retake inhibitors, desipramine, maprotiline, nomifensine and other NA retake inhibitors and imipramine acting on both 5-HT and NA system.
Experimental method: 20-24 g male mice were selected. 3 h before the test, 100 mg/kg pargyline was intraperitoneal injected and then intraperitoneal injected with test drugs or saline. 5-HTP (5 mg/kg, ip) was injected 30 min later. After 10 min, the observation was started and the number of mice head twitches in 6 min was recorded. The numbers of the head twitches of experimental group and the saline control group were compared.

Cc1nc(C#Cc2ccc(F)c(C(=O)Nc3cccnc3)c2)cs1 [ZD043]
immobility time in the mouse tail suspension test (mice [1]): significantly reduced | concentration at 0.25 h ([2]; cerebrospinal fluid, sampling time 0.25 h, read-out: Cerebrospinal fluid): 25.5 ng/mL | concentration at 1 h ([2]; cerebrospinal fluid, sampling time 1 h, read-out: Cerebrospinal fluid): 21.3 ng/mL | concentration at 3 h ([2]; cerebrospinal fluid, sampling time 3 h, read-out: Cerebrospinal fluid): 7.99 ng/mL | concentration at 0.25 h ([2]; plasma, sampling time 0.25 h, read-out: Plasma): 1240 ng/mL | concentration at 1 h ([2]; plasma, sampling time 1 h, read-out: Plasma): 1130 ng/mL | concentration at 3 h ([2]; plasma, sampling time 3 h, read-out: Plasma): 358 ng/mL | drug concentration ratio in the brain and plasma ([2]; after administration): 1/2 | B/P ([2]; sampling time 0.25 h): 1/2 | concentration at 0.25 h ([2]; sampling time 0.25 h, read-out: brain): 589 ng/g | B/P ([2]; sampling time 1 h): 1/2 | Csf/P ([2]; sampling time 1 h): 1/53 | concentration at 1 h ([2]; sampling time 1 h, read-out: brain): 559 ng/g | Csf/P ([2]; sampling time 3 h): 1/45 | concentration at 3 h ([2]; sampling time 3 h, read-out: brain): 164 ng/g | Mortality (%) (Fmr1 knockout mice; 10 mg/kg intraperitoneal): 25% | Latency (Fmr1 knockout mice; 10 mg/kg intraperitoneal, single injection, 30 min before test): 133.9 s | Seizure level (Fmr1 knockout mice; 10 mg/kg intraperitoneal): 1.4 | Latency (Fmr1 knockout mice; 20 mg/kg intraperitoneal): 123.1 s | Mortality (%) (Fmr1 knockout mice; 20 mg/kg intraperitoneal): 12.5% | Seizure level (Fmr1 knockout mice; 20 mg/kg intraperitoneal): 1.5 | Latency (Fmr1 knockout mice; 30 mg/kg intraperitoneal): 180 s | Mortality (%) (Fmr1 knockout mice; 30 mg/kg intraperitoneal): 0% | Seizure level (Fmr1 knockout mice; 30 mg/kg intraperitoneal): 0 | IC50 (mGluR1; HEK293/mGluR1 cell line): > 100 µM | mGluR5/mGluR1 (mGluR1; selectivity ratio of IC50 values): >17854 | AUC(0-t) ([3]; plasma, intravenous, vein 10 mg/kg, read-out: AUC0-t): 66400 ng·h/mL | AUC(0-inf) ([3]; plasma, iv, vein 10 mg/kg): 66400 ng·h/mL | Cmax ([3]; plasma, iv, vein 10 mg/kg): 75400 ng/mL | MRT ([3]; plasma, iv, vein 10 mg/kg): 37.2 min | Tmax ([3]; plasma, iv, vein 10 mg/kg): 4.98 min | AUC(0-t) ([3]; plasma, iv, vein 10 mg/kg, read-out: AUC0-t): 66400 ng·h/mL | bioavailability ([3]; plasma, oral): 31.6% | AUC(0-inf) ([3]; plasma, po, gavage 20 mg/kg): 10500 ng·h/mL | Cmax ([3]; plasma, po, gavage 20 mg/kg): 7120 ng/mL | MRT ([3]; plasma, po, gavage 20 mg/kg): 63.6 min | Tmax ([3]; plasma, po, gavage 20 mg/kg): 15 min | bioavailability ([3]; plasma, po): 31.6% | AUC(0-t) ([3]; plasma, po, gavage 20 mg/kg, read-out: AUC0-t): 10500 ng·h/mL | AUC(0-t) ([3]; gavage 20 mg/kg): 10491.2 ng·h/mL | t1/2 ([3]; gavage 20 mg/kg): 78 min | half-life ([3]; plasma, iv, 10 mg/kg, vein 10 mg/kg): 25.8 min | half-life ([3]; plasma, po, 20 mg/kg, gavage 20 mg/kg): 78.1 min | number of head twitches (mice [4]): increase
